# Earlier results in US20200338016A1, “COMBINATION BROAD-SPECTRUM ANTIBIOTIC PREPARATIONS FOR DRUG-RESISTANT PATHOGENS” (priority 2019, published 2020).
# Read-outs that look alike come from different tables or passages of the source.
# Tests used:
# [1] = test system: multidrug-resistant Acinetobacter baumannii
# [2] = test system: antibiotic resistant bacteria; conditions: four antibiotic resistant bacteria
# [3] = test system: antibiotic-resistant bacteria; conditions: against antibiotic-resistant bacteria
# [4] = test system: multidrug resistant Klebsiella pneumonia; conditions: twenty strains of multidrug resistant Klebsiella pneumonia
# [5] = test system: antibiotic resistant C. albicans
# [6] = test system: multidrug resistant Acinetobacter baumannii; conditions: six strains of multidrug resistant Acinetobacter baumannii
# [7] = test system: extensively multidrug resistant Acinetobacter baumannii
# [8] = test system: methicillin-resistant Staphylococcus aureus; conditions: MRSA
# [9] = test system: methicillin-resistant Staphylococus aureus
# [10] = test system: antibiotic resistant bacteria; conditions: four strains of antibiotic resistant bacteria; extracted from horseradish
# [11] = test system: antibiotic resistant Staphylococcus aureus
# [12] = test system: antibiotic-resistant streptococcus; conditions: 32 strains of antibiotic-resistant streptococcus
# MRSA = conditions: for MBEC: Minimal Biofilm Eradication Concentration, single agent; for MIC: Minimal Inhibitory Concentration
# [13] = test system: Proteus vulgaris (NCTC 4175)
# [14] = test system: Bacillus subtilis (NCTC 8236)
# [15] = test system: Staphylococcus aureus (NCTC 6571)
# [16] = test system: Escherichia coli (NCTC 10418)
# [17] = test system: Candida albicans (ATCC 10231)
# [18] = test system: Aspergillus niger (ATCC 10578)
compound,measurement,setting,value
O=c1cc(-c2ccccc2)oc2c(O)c(O)cc(O)c12 [norwogonin],concentration that inhibits,[1],"1,000 micrograms per milliliter"
O=C(O[C@@H]1O[C@@H]2COC(=O)c3cc(O)c(O)c(O)c3-c3c(cc(O)c(O)c3O)C(=O)O[C@H]([C@H]1O)[C@@H]2O)c1cc(O)c(O)c(O)c1 [corilagin],concentration that inhibits,[1],"1,000 micrograms per milliliter"
O=c1c(O)c(-c2ccc(O)cc2)oc2cc(O)cc(O)c12 [kaempferol],concentration that kills,[2],5 milligrams per milliliter
same,antibiotic properties (in words),[3],antibiotic properties
catechin gallate,antibiotic properties (in words),[3],antibiotic properties
theaflavin gallate,antibiotic properties (in words),[3],antibiotic properties
O=c1c(O)c(-c2ccc(O)c(O)c2)oc2cc(O)cc(O)c12 [quercetin],concentration that kills,[4],1024 microgram per milliliter
same,concentration that kills,[2],5 milligrams per milliliter
same,antibiotic properties (in words),[3],antibiotic properties
Cn1c(=O)c2c(ncn2C)n(C)c1=O [caffeine],antibiotic properties (in words),[3],antibiotic properties
CC(C)=CCC/C(C)=C/CO [geraniol],concentration that inhibits,[5],1580 micrograms per milliliter
O=c1cc(-c2ccc(O)c(O)c2)oc2cc(O)cc(O)c12 [luteolin],concentration that kills,[2],5 milligrams per milliliter
O=C(O[C@@H]1Cc2c(O)cc(O)cc2O[C@@H]1c1ccc(O)cc1)c1cc(O)c(O)c(O)c1 [epiafzelechin gallate],antibiotic properties (in words),[3],antibiotic properties
O=c1c(O)cc([C@H]2Oc3cc(O)cc(O)c3C[C@H]2O)cc2c([C@H]3Oc4cc(O)cc(O)c4C[C@H]3O)cc(O)c(O)c12 [theaflavin],antibiotic properties (in words),[3],antibiotic properties
same,concentration that inhibits,[6],512 milligrams per liter
O=C(O[C@@H]1Cc2c(O)cc(O)cc2O[C@@H]1c1cc(O)c(=O)c2c(O)c(O)cc([C@H]3Oc4cc(O)cc(O)c4C[C@H]3OC(=O)c3cc(O)c(O)c(O)c3)c2c1)c1cc(O)c(O)c(O)c1 [theaflavin digallate],antibiotic properties (in words),[3],antibiotic properties
Cn1cnc2c1c(=O)[nH]c(=O)n2C [theobromine],antibiotic properties (in words),[3],antibiotic properties
O=C(O)/C=C/c1ccc(O)c(O)c1 [caffeic acid],concentration that kills,[4],1024 microgram per milliliter
C[C@H]1[C@H]2CC[C@H]3[C@@H]4CC=C5C[C@@H](N(C)C)CC[C@]5(C)[C@H]4CC[C@]23CN1C [conessine],concentration that inhibits,[7],10 milligrams per liter
C=CC(C)(O)CCC=C(C)C (centres unmarked) [linalool],concentration that inhibits,[5],1580 micrograms per milliliter
Oc1cc(O)c2c(c1)O[C@H](c1cc(O)c(O)c(O)c1)[C@H](O)C2 [epigallocatechin],antibiotic properties (in words),[3],antibiotic properties
Oc1cc(O)c2c(c1)O[C@H](c1cc(O)c(O)c(O)c1)[C@@H](O)C2 [gallocatechin],antibiotic properties (in words),[3],antibiotic properties
trechebulin,concentration that inhibits,[1],"1,000 micrograms per milliliter"
CC1(C)[C@@H](O)CC[C@]2(C)[C@H]3C(=O)C=C4[C@@H]5C[C@@](C)(C(=O)O)CC[C@]5(C)CC[C@@]4(C)[C@]3(C)CC[C@@H]12 [glycerrhetinic acid],concentration that kills,[8],0.223 µM
CC(C)=CCCC(C)=CC=O [citral],concentration that kills,[9],0.06%
S=C=NCCc1ccccc1 [phenylethyl isothiocyanate],concentration that kills,[10],2000 microgram per milliliter
pinene,concentration that inhibits,[11],20 microliters per milliliter
Oc1ccc([C@H]2Oc3cc(O)cc(O)c3C[C@H]2O)cc1 [epiafzelechin],antibiotic properties (in words),[3],antibiotic properties
O=C(O[C@@H]1Cc2c(O)cc(O)cc2O[C@@H]1c1ccc(O)c(O)c1)c1cc(O)c(O)c(O)c1 [epicatechin gallate],antibiotic properties (in words),[3],antibiotic properties
catechin,concentration that kills,[2],5 milligrams per milliliter
same,antibiotic properties (in words),[3],antibiotic properties
COc1cc(/C=C/C(=O)O)ccc1O [ferulic acid],concentration that kills,[2],5 milligrams per milliliter
Cc1ccc(C(C)C)cc1O [Carvacrol],concentration that inhibits,[12],256 micrograms per milliliter
same,MBEC,MRSA,0.04 percentage of volume
same,MIC,MRSA,0.02 percentage of volume
C=CCc1ccc(O)c(OC)c1 [Eugenol],MBC,MRSA; Minimal Bactericidal Concentration,0.08 percentage of volume
same,MBEC,MRSA,0.08 percentage of volume
same,MIC,MRSA,0.04 percentage of volume
"O=C(O[C@@H]1Cc2c(O)cc(O)cc2O[C@@H]1c1cc(O)c(O)c(O)c1)c1cc(O)c(O)c(O)c1 [EGCG, epigallocatechin gallate]",concentration that kills,[4],1024 microgram per milliliter
same,antibiotic properties (in words),[3],antibiotic properties
Cn1c(=O)c2[nH]cnc2n(C)c1=O [theophylline],antibiotic properties (in words),[3],antibiotic properties
piliostigmol,inhibition (in words),[13],inhibits
same,inhibition (in words),[14],inhibits
same,inhibition (in words),[15],inhibits
same,inhibition (in words),[16],inhibits
same,inhibition (in words),[17],inhibits
same,inhibition (in words),[18],inhibits
O=C(/C=C/c1ccc(O)c(O)c1)O[C@@H]1C[C@](O)(C(=O)O)C[C@@H](O)[C@H]1O [chlorogenic acid],concentration that kills,[2],5 milligrams per milliliter
same,antibiotic properties (in words),[3],antibiotic properties
theasinesin A,antibiotic properties (in words),[3],antibiotic properties
